The term IC50 denotes the concentration needed to halve the response being measured.

The target of this experiment is Induced myeloid leukemia cell differentiation protein Mcl-1 (Homo sapiens, UniProt Q07820). The experiment in a line: Inhibition of Bak binding to Mcl-1 by FRET assay.
Chain of Induced myeloid leukemia cell differentiation protein Mcl-1 (Q07820 whole entry): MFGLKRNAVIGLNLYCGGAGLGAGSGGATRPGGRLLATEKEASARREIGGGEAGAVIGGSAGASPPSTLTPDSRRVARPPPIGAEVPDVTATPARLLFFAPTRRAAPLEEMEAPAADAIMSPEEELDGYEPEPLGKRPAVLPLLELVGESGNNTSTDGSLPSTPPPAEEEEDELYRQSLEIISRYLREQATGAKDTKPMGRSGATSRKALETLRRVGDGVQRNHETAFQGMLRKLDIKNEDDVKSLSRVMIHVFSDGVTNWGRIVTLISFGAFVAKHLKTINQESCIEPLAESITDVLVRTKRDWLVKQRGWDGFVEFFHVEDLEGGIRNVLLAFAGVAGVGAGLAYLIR
`Oc1c(Br)cc(Br)cc1Oc1c(O)c(Br)c(Br)c(Br)c1Br` yielded a 50% inhibitory concentration (IC50) greater than 14.8 µM.
The figure for `Oc1c(Br)cc(Br)cc1Oc1cc(Br)c(Br)c(Br)c1O` is greater than 16.8 µM.
Regarding `Oc1c(Br)c(Br)cc(Br)c1Oc1ccc(Br)cc1Br`, the IC50 is greater than 17.2 µM.
The figure for `Oc1cc(Br)cc(Br)c1Oc1ccc(Br)cc1Br` is 4.78 µM.
With `Oc1c(Br)cc(Br)cc1Oc1c(Br)cc(Br)c(Br)c1O`, the IC50 is greater than 16.8 µM.
Under `Oc1cc(Br)c(Br)c(Br)c1Oc1cc(Br)cc(Br)c1O` stands greater than 16.8 µM; under `COc1c(Br)c(Br)cc(Br)c1Oc1cc(Br)cc(Br)c1O`, greater than 16.4 µM.
Under `Oc1c(Br)cc(Br)cc1Oc1c(O)c(Br)cc(Br)c1Br` stands greater than 16.8 µM.

The values are drawn from ChEMBL document CHEMBL1152335, “NMR strategy for unraveling structures of bioactive sponge-derived oxy-polyhalogenated diphenyl ethers” (J Nat Prod, 2009).
